Experiments:
[1] = tested on: duodenal mucosal cells (DMC); test: Net urea production by isolated duodenal mucosal cells incubated with ornithine-urea cycle substrate intermediates; assay type: cell-based, sheep; set-up: net urea production: dose or concentration left out as unconfirmed
From the text: Ruminal epithelial cells (REC) and duodenal mucosal cells (DMC) were harvested from four growing Polypay ram lambs (33.1 plus/minus 4.8 kg body weight) fed a pelleted diet comprised of 55% forage (alfalfa hay) and 45% concentrate (dry ground corn. soybean meal, and premix of minerals and vitamins) ad libitum for at least two weeks before slaughter. All animal procedures were approved by the Beltsville Agricultural Research Center Institutional Animal Care and Use Committee (protocol # 02-008). Gut cells were isolated separately for each sheep following the procedures described by Baldwin and McLeod and Oba et al. Cell viability averaged 73.1% for REC and 82.4% for DMC. […] Urea concentration was determined by isotope dilution with gas chromatography-mass spectrometry (HP6890 coupled to an HP5973 Mass Selective Detector, Agilent, Palo Alto, Calif.) essentially according to the known method of Calder et al. See Calder, A. G., Rapid Commun. […] Net urea production was calculated by subtracting background urea present at time 0 (Control) from concentrations after 90-min incubation. Data were analyzed separately for REC and DMC using the Proc Mixed procedure of SAS (SAS Inc., Cary, N.C.) with fixed effect of VFA type, substrate combination, their interactions, and random effect of animals in the model.

[2] = tested on: Ruminal epithelial cells (REC); test: Net urea production by isolated ruminal epithelial cells incubated with ornithine-urea cycle substrate intermediates; assay type: cell-based, sheep; set-up: net urea production: dose or concentration left out as unconfirmed
From the text: Ruminal epithelial cells (REC) and duodenal mucosal cells (DMC) were harvested from four growing Polypay ram lambs (33.1 plus/minus 4.8 kg body weight) fed a pelleted diet comprised of 55% forage (alfalfa hay) and 45% concentrate (dry ground corn. soybean meal, and premix of minerals and vitamins) ad libitum for at least two weeks before slaughter. All animal procedures were approved by the Beltsville Agricultural Research Center Institutional Animal Care and Use Committee (protocol # 02-008). Gut cells were isolated separately for each sheep following the procedures described by Baldwin and McLeod and Oba et al. Cell viability averaged 73.1% for REC and 82.4% for DMC. […] N-carbamoyl glutamate is a stable analog of […] stimulator of carbamoyl phosphate synthetase. Treatments were arranged in a 2×4 factorial design, and performed in triplicate incubations for each sheep. […] Krebs-Ringer plus 24 mM HEPES and 0.12 M sodium bicarbonate) was oxygenated with O2:CO2 (95:5) and the pH adjusted to 7.4. Incubations were initiated by addition of 0.5 ml of cell suspension (1×10^7 viable cells) to freshly gassed (20 s under 95:5 O2:CO2) media, and flasks were placed into a reciprocal action shaking water bath at 37° C. After 90 min, 0.2 ml of concentrated HClO4 was injected into the flasks to terminate the incubation, followed by addition of 0.3 ml of 5.8 M K2CO3 to neutralize the media. […] See Lobley, G. E. et al., Br. J. Nutr. […] Urea concentration was determined by isotope dilution with gas chromatography-mass spectrometry (HP6890 coupled to an HP5973 Mass Selective Detector, Agilent, Palo Alto, Calif.) essentially according to the known method of Calder et al. See Calder, A. G., Rapid Commun. […] Net urea production was calculated by subtracting background urea present at time 0 (Control) from concentrations after 90-min incubation. Data were analyzed separately for REC and DMC using the Proc Mixed procedure of SAS (SAS Inc., Cary, N.C.) with fixed effect of VFA type, substrate combination, their interactions, and random effect of animals in the model.

SMILES | net urea production ([1]; 90 min incubation in media, background urea at time 0 subtracted) | net urea production by REC relative to DMC ([2]; REC versus DMC in the presence of arginine) [fold] | net urea production ([2]; REC, 90 min incubation in media, background urea at time 0 subtracted) | effect of N-carbamoyl glutamate addition on urea synthesis ([1]; AspONG versus AspON (P<0.001)) | effect of N-carbamoyl glutamate addition on urea synthesis ([2]; REC, AspONG versus AspON (P=0.11))
N=C(N)NCCC[C@H](N)C(=O)O [Arg, arginine] | 2.1±0.7 nmoles·10^6 cells^−1 90 min^−1 | 25 | 54.5±6.3 nmoles·10^6 cells^−1 90 min^−1 |  | 
NC(=O)N[C@@H](CCC(=O)O)C(=O)O [N-carbamoyl glutamate] |  |  |  | stimulatory effect | stimulatory effect

Source: US7951407B2, “Ruminant feed containing N-carbamoyl glutamate” (University of Maryland, priority 2003, dated 2011)
